Results reported in ChEMBL document CHEMBL1150994, “The chemical synthesis of large random peptide libraries and their use for the discovery of ligands for macromolecular acceptors” (Bioorg Med Chem Lett, 1993).
Activity calls are given as the source filed them. No cut-off for these calls is given here. Where a SMILES comes first, the peptide text is derived from it. [ ]: non-standard residue; d: D form. βAla = NCCC(=O)O

system: Monoclonal antibody (mAb) 3E7; test: Affinity towards anti-beta-endorphin MAb(Clone 3-E7) using [3H][Leu5]-enkephalin as labeled ligand at 10 uM concentration; not active

Structure (SMILES)	Activity
C[C@@H](O)[C@H](NC(=O)[C@H](Cc1ccccc1)NC(=O)CNC(=O)CNC(=O)[C@@H](N)Cc1ccc(O)cc1)C(=O)O (H-YGGFT-OH)	inactive
CC(C)C[C@H](NC(=O)CNC(=O)CNC(=O)[C@@H](N)Cc1ccc(O)cc1)C(=O)N[C@@H](CO)C(=O)O (H-YGGLS-OH)	inactive
C[C@H](NC(=O)[C@H](Cc1ccccc1)NC(=O)CNC(=O)CNC(=O)[C@@H](N)Cc1ccc(O)cc1)C(=O)O (H-YGGFA-OH)	inactive
CSCC[C@H](NC(=O)CNC(=O)CNC(=O)[C@@H](N)Cc1ccc(O)cc1)C(=O)N[C@H](C(=O)O)C(C)C (H-YGGMV-OH)	inactive
CC(C)C[C@H](NC(=O)[C@H](C)NC(=O)CNC(=O)[C@@H](N)Cc1ccc(O)cc1)C(=O)N[C@@H](CCC(N)=O)C(=O)O (H-YGALQ-OH)	inactive

system: Monoclonal antibody (mAb) 3E7; test: Affinity of compound towards anti-beta-endorphin MAb(Clone 3-E7) using [3H]-[Leu5]-enkephalin as labeled ligand

Structure (SMILES)	EC50 [nM]
CSCC[C@H](NC(=O)[C@@H]1CCCN1C(=O)[C@H](C)NC(=O)CNC(=O)[C@@H](N)Cc1ccc(O)cc1)C(=O)O (H-YGAPM-OH)	52

system: Monoclonal antibody (mAb) 3E7; test: Affinity towards anti-beta-endorphin MAb(Clone 3-E7) using [3H][Leu5]-enkephalin as labeled ligand

Structure (SMILES)	IC50 [nM]
C[C@@H](O)[C@H](NC(=O)[C@H](Cc1ccccc1)NC(=O)CNC(=O)CNC(=O)[C@@H](N)Cc1ccc(O)cc1)C(=O)O (H-YGGFT-OH)	36.9
CC(C)C[C@H](NC(=O)CNC(=O)CNC(=O)[C@@H](N)Cc1ccc(O)cc1)C(=O)N[C@@H](CO)C(=O)O (H-YGGLS-OH)	726
C[C@H](NC(=O)[C@H](Cc1ccccc1)NC(=O)CNC(=O)CNC(=O)[C@@H](N)Cc1ccc(O)cc1)C(=O)O (H-YGGFA-OH)	32.9
CSCC[C@H](NC(=O)CNC(=O)CNC(=O)[C@@H](N)Cc1ccc(O)cc1)C(=O)N[C@H](C(=O)O)C(C)C (H-YGGMV-OH)	8780
CC(C)C[C@H](NC(=O)[C@H](Cc1ccccc1)NC(=O)CNC(=O)CNC(=O)[C@@H](N)Cc1ccc(O)cc1)C(=O)N[C@@H](C)C(=O)O (H-YGGFLA-OH)	17.1
CC(C)C[C@H](NC(=O)[C@H](C)NC(=O)CNC(=O)[C@@H](N)Cc1ccc(O)cc1)C(=O)N[C@@H](CCC(N)=O)C(=O)O (H-YGALQ-OH)	1980
CC(C)C[C@H](NC(=O)[C@H](Cc1ccccc1)NC(=O)CNC(=O)CNC(=O)[C@@H](N)Cc1ccc(O)cc1)C(N)=O [[LEU5]ENKEPHALIN]	27.3
CC(C)C[C@H](NC(=O)[C@H](C)NC(=O)CNC(=O)[C@@H](N)Cc1ccc(O)cc1)C(=O)N[C@@H](CCC(N)=O)C(=O)NCCC(=O)O (H-YGALQ[βAla]-OH)	1470
NC(=O)CC[C@H](NC(=O)[C@H](Cc1ccccc1)NC(=O)CNC(=O)CNC(=O)[C@@H](N)Cc1ccccc1)C(=O)O (H-FGGFQ-OH)	15
